Experimental data: patent US20050026833A1, “PSP-94: use for treatment of hypercalcemia and bone metastasis” (priority 2001, published 2005)

Tested on: PTHrP
Test: PTHrP immunohistochemistry of skeletal metastasis (vertebrae)
Assay type: in vivo, male Copenhagen rats
Details: 100.0 ug/kg PCK3145, day 10, vs vehicle
Method: For example, vertebral columns were fixed and decalcified for a period of 3 weeks. Vertebral column samples were dewaxed in xylene, and rehydrated through a graded alcohol series (100%-70%). For determining the level of expression of PTHrP by skeletal metastasis, the sections were incubated in 1% normal goat serum (Vector Laboratories Inc., Burlingame, Calif., USA) for 30 min at room temperature before treatment with the primary antibody (polyclonal antiserum against PTHrP (1-34) from rabbit) at 1: 200 dilution overnight at 4° C. Biotinylated goat anti-rabbit IgG (Vector Laboratories Inc., Burlingame, Calif., USA) was used as the secondary antibody at 1:200 for 30 min at room temperature. […]
Computer-Assisted Image Analysis. Computer-assisted image analysis was carried out to quantify PTHrP immunostaining and determination of % TV/BV in the vertebral sections. […] The threshold was set by determining the positive staining of control sections and was used to automatically analyze all recorded images of all samples that were stained in the same session under identical conditions. The area of stained regions was calculated automatically by the software in each microscopic field. Pixel counts of the immunoreaction product were calculated automatically and were given as total density of the integrated immunostaining over a given area. […]

“E W Q T D N C E T C T C Y E T (EWQTDNCETCTCYET; PCK3145 (polypeptide 31-45))” was tested. Which “PTHrP staining in Mat Ly Lu-PTHrP cells of the vertebral column (total density)” value did it give?
The value was “significantly lower”.
